Assay results reported in article PMC11779924 (Nature Communications, 2025).

Key:
[1] = tested on: hypertensive rats with blood clot defect (BCD); test: Rat incisor extraction BCD model: coagulation time; format: in vivo; conditions: treated immediately after tooth extraction, n = 12
[2] = tested on: hypertensive rats with blood clot defect (BCD); format: in vivo, rat; conditions: micro-CT
[3] = tested on: hypertensive rats with blood clot defect (BCD); test: Rat BCD model: immunofluorescent staining of CD73&Fak, Runx2, Alp; format: in vivo; conditions: BCgel vs Ctrl, n = 6
BCD rats = conditions: rat, in vivo
[4] = tested on: beagles with blood clot defect (heparin); test: Beagle tooth extraction BCD model: coagulation time; format: in vivo; conditions: treated immediately after tooth extraction, n = 7
[5] = tested on: beagles with blood clot defect (heparin); parameters: species or system beagle; conditions: dog, in vivo
healthy SD rats = conditions: subcutaneous implantation, n = 6
beagles = test: Beagle BCD model: overall toxicity incl. cardiotoxicity and organ H&E

(RADA)4GSVLGYIQIR [BCgel]
reduction in coagulation time compared to gelform [1]: 55% | osteogenic effects of mechanically unloaded BCgel ([2]; 0.5% BCgel vs gelform (Ctrl), n = 3): negligible osteogenic effects | decrease in Tb.Sp compared to the Ctrl group ([2]; 1 week post-treatment, n = 6): 47% | increase in BMD compared to the Ctrl group ([2]; 1 week post-treatment, n = 6): 73% | increase in BV/TV compared to the Ctrl group ([2]; 1 week post-treatment, n = 6): 84% | increase in CD73+&Fak+ double positive cells ([3]; one-month post-treatment): 15 fold | increase in CD73+&Fak+ double positive cells ([3]; one-week post-treatment): 31 fold | increase in bone mineral density (BMD) (BCD rats): 39% | reduction in trabecular separation (Tb.Sp) (BCD rats): 50% | reduction in coagulation time vs gelform (Ctrl) [4]: 69% | elevation in Tb.N compared to the Ctrl group [5]: 56% | enhancement in BMD compared to the Ctrl group [5]: 105% | increase in BV/TV compared to the Ctrl group [5]: 143% | reduction in Tb.Sp compared to the Ctrl group [5]: 60% | hematological parameters (healthy SD rats): nor did they have any impact on hematological parameters | hepatic or renal function (healthy SD rats): neither BCgel nor gelform induced any hepatic or renal abnormalities | immunotoxicity, hematotoxicity, hepatotoxicity, nephrotoxicity, cardiotoxicity (beagles; BCgel for two months, n = 4): did not result in any observed immunotoxicity | physiological toxicity (hematotoxicity, hepatotoxicity, nephrotoxicity, cardiotoxicity) (beagles; five months after tooth extraction, n = 3): no signs of physiological toxicity
